In patent US4725683A, “Fluorophenoxyphenoxypropionates and derivatives thereof” (The Dow Chemical Company, priority 1985, dated 1988):

Key:
Assay in all cases: Preemergent activity
Type in all cases: in vivo
Barnyard Grass = settings: Echinochloa crus-galli, pre-emergence, read-out: Preemergence Control; for pest or weed control at 140 g/ha: 0.14 kgs/hectare; for pest or weed control at 280 g/ha: 0.28 kgs/hectare; for pest or weed control at 560 g/ha: 0.56 kgs/hectare; for pest or weed control at 1120 g/ha: 1.12 kgs/hectare; for pest or weed control at 70 g/ha: 0.07 kgs/hectare
Protocol: (§1) In a representative operation, 2-[4-(2-fluoro-4-trifluoromethylphenoxy)phenoxy]propionic acid methyl ester, to be utilized in a series of tests, is dissolved in acetone to one half of the final volume (twice the final concentration) to be used and the acetone solution in each case is admixed with an equal volume of water containing 0.1 percent by weight of Tween-20 surface active material (Tween-20 is a trademark of Atlas Chemical Company). The composition, generally in the nature of an emulsion, was employed to treat separate respective seed beds of sandy loam soil of good nutrient content wherein each seed bed contained separate groups of good viable seeds, each group being of one of a known plant species. The various beds were positioned side by side and exposed to substantially identical conditions of temperature and light. Each bed was maintained so as to prevent any interaction with the test compound in different seed beds. Each seed bed was treated with the composition as a spray employing conventional spraying equipment to deposit a predetermined amount of the compound uniformly throughout the surface of the bed. Another seed bed was treated only with the acetone-Tween-20 water mixture with no chemical added to serve as a control.

Johnson Grass = settings: Sorghum halepense, pre-emergence, read-out: Preemergence Control; for pest or weed control at 140 g/ha: 0.14 kgs/hectare; for pest or weed control at 280 g/ha: 0.28 kgs/hectare; for pest or weed control at 560 g/ha: 0.56 kgs/hectare; for pest or weed control at 1120 g/ha: 1.12 kgs/hectare; for pest or weed control at 70 g/ha: 0.07 kgs/hectare
Protocol: as §1

Wheat = settings: Triticum aestivum, pre-emergence, read-out: Preemergence Control; for plant injury at 70 g/ha: 0.07 kgs/hectare; for plant injury at 140 g/ha: 0.14 kgs/hectare; for plant injury at 280 g/ha: 0.28 kgs/hectare; for plant injury at 560 g/ha: 0.56 kgs/hectare; for plant injury at 1120 g/ha: 1.12 kgs/hectare
Protocol: as §1

Wild Oats = settings: Avena fatua, pre-emergence, read-out: Preemergence Control; for pest or weed control at 140 g/ha: 0.14 kgs/hectare; for pest or weed control at 280 g/ha: 0.28 kgs/hectare; for pest or weed control at 560 g/ha: 0.56 kgs/hectare; for pest or weed control at 1120 g/ha: 1.12 kgs/hectare; for pest or weed control at 70 g/ha: 0.07 kgs/hectare
Protocol: as §1

Yellow Foxtail = settings: Setaria, pre-emergence, read-out: Preemergence Control; for pest or weed control at 140 g/ha: 0.14 kgs/hectare; for pest or weed control at 280 g/ha: 0.28 kgs/hectare; for pest or weed control at 560 g/ha: 0.56 kgs/hectare; for pest or weed control at 1120 g/ha: 1.12 kgs/hectare; for pest or weed control at 70 g/ha: 0.07 kgs/hectare
Protocol: as §1

Row | Structure (SMILES) | pest or weed control at 140 g/ha (Barnyard Grass) [%] | pest or weed control at 280 g/ha (Barnyard Grass) [%] | pest or weed control at 560 g/ha (Barnyard Grass) [%] | pest or weed control at 1120 g/ha (Barnyard Grass) [%] | pest or weed control at 140 g/ha (Johnson Grass) [%] | pest or weed control at 280 g/ha (Johnson Grass) [%] | pest or weed control at 560 g/ha (Johnson Grass) [%] | pest or weed control at 1120 g/ha (Johnson Grass) [%] | plant injury at 70 g/ha (Wheat) [%] | plant injury at 140 g/ha (Wheat) [%] | plant injury at 280 g/ha (Wheat) [%] | plant injury at 560 g/ha (Wheat) [%] | plant injury at 1120 g/ha (Wheat) [%] | pest or weed control at 140 g/ha (Wild Oats) [%] | pest or weed control at 280 g/ha (Wild Oats) [%] | pest or weed control at 560 g/ha (Wild Oats) [%] | pest or weed control at 1120 g/ha (Wild Oats) [%] | pest or weed control at 140 g/ha (Yellow Foxtail) [%] | pest or weed control at 560 g/ha (Yellow Foxtail) [%] | pest or weed control at 1120 g/ha (Yellow Foxtail) [%] | also measured
1 | C=CCNC(=O)C(C)Oc1ccc(Oc2ccc(Br)cc2F)cc1 (stereo not drawn) | 0 | 100 | 100 | 100 | 0 | 50 | 90 | 100 | 0 | 0 | 0 | 0 | 0 | 80 | 90 | 80 | 90 | 0 | 90 | 100 | pest or weed control at 280 g/ha (Yellow Foxtail): 30%
2 | CC(Oc1ccc(Oc2ccc(Br)cc2F)cc1)C(=O)Nc1ccc(C(F)(F)F)cc1 (stereo not drawn) | 0 |  |  | 50 | 0 |  |  | 20 | 0 | 0 | 0 | 0 | 0 | 0 |  |  | 60 | 0 |  | 0 | 
3 | COc1cccc(NC(=O)C(C)Oc2ccc(Oc3ccc(Br)cc3F)cc2)c1 (stereo not drawn) | 0 | 100 | 100 | 100 | 0 | 30 | 30 | 100 | 0 | 0 | 0 | 0 | 0 | 0 | 0 | 40 | 30 | 0 | 80 | 100 | pest or weed control at 280 g/ha (Yellow Foxtail): 20%
4 | CCCCOC(=O)C(C)Oc1ccc(Oc2ccc(Br)cc2F)cc1 (stereo not drawn) [O(CH2)3 CH3, Propionic acid: 2-(4-(4-bromo-2-fluorophenoxy)phenoxy), n-butyl ester] | 70 | 100 | 100 | 100 | 0 | 65 | 100 | 100 | 0 | 0 | 0 | 30 | 30 | 0 | 50 | 80 | 100 | 40 | 100 | 100 | pest or weed control at 70 g/ha (Barnyard Grass): 0%; pest or weed control at 70 g/ha (Johnson Grass): 0%; pest or weed control at 70 g/ha (Wild Oats): 0%; pest or weed control at 70 g/ha (Yellow Foxtail): 0%; pest or weed control at 280 g/ha (Yellow Foxtail): 95%
5 | CC(Oc1ccc(Oc2ccc(Br)cc2F)cc1)C(=O)OC1CCCC1 (stereo not drawn) | 50 | 100 | 100 | 100 | 0 | 40 | 100 | 100 | 0 | 0 | 0 | 0 | 80 | 0 | 30 | 100 | 100 | 0 | 100 | 100 | pest or weed control at 280 g/ha (Yellow Foxtail): 100%
6 | Cc1cc(Cl)ccc1NC(=O)C(C)Oc1ccc(Oc2ccc(Br)cc2F)cc1 (stereo not drawn) | 0 |  | 0 | 100 | 0 |  | 0 | 60 | 0 | 0 | 0 | 0 | 40 | 0 |  | 0 | 90 | 0 | 70 | 100 | 
7 | C#CCOC(=O)C(C)Oc1ccc(Oc2ccc(Br)cc2F)cc1 (stereo not drawn) [OCH2CCH] | 20 | 100 | 100 | 100 | 20 | 50 | 100 | 100 | 0 | 0 | 0 | 0 | 0 |  | 50 | 50 | 70 | 60 | 100 | 100 | pest or weed control at 70 g/ha (Barnyard Grass): 0%; pest or weed control at 70 g/ha (Johnson Grass): 0%; pest or weed control at 70 g/ha (Wild Oats): 0%; pest or weed control at 70 g/ha (Yellow Foxtail): 0%; pest or weed control at 280 g/ha (Yellow Foxtail): 95%
8 | C=CCOC(=O)C(C)Oc1ccc(Oc2ccc(Br)cc2F)cc1 (stereo not drawn) [OCH2 CCH2] | 100 | 100 | 100 | 100 | 0 | 80 | 90 | 100 | 0 | 0 | 0 | 0 | 70 | 0 | 40 | 70 | 70 | 30 | 100 | 100 | pest or weed control at 70 g/ha (Barnyard Grass): 95%; pest or weed control at 70 g/ha (Johnson Grass): 0%; pest or weed control at 70 g/ha (Wild Oats): 0%; pest or weed control at 70 g/ha (Yellow Foxtail): 30%; pest or weed control at 280 g/ha (Yellow Foxtail): 90%
9 | CCCCCCCCOC(=O)C(C)Oc1ccc(Oc2ccc(Br)cc2F)cc1 (stereo not drawn) [O(CH2)7 CH3] | 95 | 100 | 100 | 100 | 0 | 100 | 100 | 100 | 0 | 0 | 0 | 0 | 90 | 0 | 100 | 100 | 100 | 0 | 90 | 100 | pest or weed control at 70 g/ha (Barnyard Grass): 9%; pest or weed control at 70 g/ha (Johnson Grass): 0%; pest or weed control at 70 g/ha (Wild Oats): 0%; pest or weed control at 70 g/ha (Yellow Foxtail): 0%; pest or weed control at 280 g/ha (Yellow Foxtail): 80%
